Laboratory results as given in ChEMBL document CHEMBL5653615 (J Biol Chem, 2013).

What was measured:
[1] = molecular target: Ribosomal protein S6 kinase alpha-3 (Homo sapiens) (UniProt P51812); assay: Inhibition of human RSK2 at 18.6 nM by HotSpot assay relative to control
[2] = molecular target: T1, Serine/threonine-protein kinase Chk1 (Homo sapiens) (UniProt O14757); assay: Inhibition of human CHK1 at 18.6 nM by HotSpot assay relative to control
T1 sequence (whole entry): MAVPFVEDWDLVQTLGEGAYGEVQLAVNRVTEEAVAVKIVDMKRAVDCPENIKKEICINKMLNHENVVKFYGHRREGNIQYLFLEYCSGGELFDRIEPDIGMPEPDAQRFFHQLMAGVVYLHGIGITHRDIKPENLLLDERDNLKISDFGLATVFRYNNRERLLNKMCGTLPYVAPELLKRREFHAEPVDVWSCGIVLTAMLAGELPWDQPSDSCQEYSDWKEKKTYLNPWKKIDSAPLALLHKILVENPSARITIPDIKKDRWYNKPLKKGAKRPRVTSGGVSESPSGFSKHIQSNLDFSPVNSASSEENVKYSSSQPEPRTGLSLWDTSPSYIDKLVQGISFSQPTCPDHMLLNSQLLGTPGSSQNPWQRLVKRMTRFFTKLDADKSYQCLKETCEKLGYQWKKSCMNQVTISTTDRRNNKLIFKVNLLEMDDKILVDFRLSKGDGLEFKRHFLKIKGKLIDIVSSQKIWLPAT

[3] = molecular target: RAC-alpha serine/threonine-protein kinase (Homo sapiens) (UniProt P31749); assay: Inhibition of human AKT1 at 18.6 nM by HotSpot assay relative to control
Sequence of RAC-alpha serine/threonine-protein kinase (Homo sapiens) (P31749 whole entry): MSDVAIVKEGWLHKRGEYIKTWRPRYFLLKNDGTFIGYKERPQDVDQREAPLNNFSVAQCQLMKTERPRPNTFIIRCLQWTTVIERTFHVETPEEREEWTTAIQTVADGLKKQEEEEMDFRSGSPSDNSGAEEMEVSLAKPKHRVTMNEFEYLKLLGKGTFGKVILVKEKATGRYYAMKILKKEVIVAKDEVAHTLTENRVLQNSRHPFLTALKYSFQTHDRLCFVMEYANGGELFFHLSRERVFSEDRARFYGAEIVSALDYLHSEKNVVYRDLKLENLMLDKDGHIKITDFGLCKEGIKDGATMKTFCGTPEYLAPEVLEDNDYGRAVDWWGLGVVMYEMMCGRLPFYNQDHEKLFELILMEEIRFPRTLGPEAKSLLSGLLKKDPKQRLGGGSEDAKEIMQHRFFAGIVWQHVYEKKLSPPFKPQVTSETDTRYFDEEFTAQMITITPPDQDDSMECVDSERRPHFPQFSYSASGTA

[4] = molecular target: Mitogen-activated protein kinase 10 (Homo sapiens) (UniProt P53779); assay: Inhibition of human JNK3 at 18.6 nM by HotSpot assay relative to control
Sequence of Mitogen-activated protein kinase 10 (Homo sapiens) (P53779 whole entry): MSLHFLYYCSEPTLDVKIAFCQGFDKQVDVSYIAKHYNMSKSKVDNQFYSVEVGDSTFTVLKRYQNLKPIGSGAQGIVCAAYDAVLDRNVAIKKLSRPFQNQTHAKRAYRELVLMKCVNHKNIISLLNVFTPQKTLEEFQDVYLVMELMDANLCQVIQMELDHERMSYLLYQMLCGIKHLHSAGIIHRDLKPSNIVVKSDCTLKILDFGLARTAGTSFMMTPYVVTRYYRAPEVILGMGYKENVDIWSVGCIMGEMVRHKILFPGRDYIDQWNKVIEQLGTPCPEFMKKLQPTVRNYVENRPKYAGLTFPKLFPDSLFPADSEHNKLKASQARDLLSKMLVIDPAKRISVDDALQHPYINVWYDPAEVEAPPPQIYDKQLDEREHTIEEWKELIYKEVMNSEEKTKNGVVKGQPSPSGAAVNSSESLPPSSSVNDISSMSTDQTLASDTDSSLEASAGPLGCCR

Homo sapiens = organism: Homo sapiens; assay: Inhibition of human TAO1 at 1.82 nM by HotSpot assay relative to control
[5] = molecular target: T2, cGMP-dependent protein kinase 1 (Homo sapiens) (UniProt Q13976); assay: Inhibition of human PKG1a at 1.82 nM by HotSpot assay relative to control
T2 sequence (whole entry): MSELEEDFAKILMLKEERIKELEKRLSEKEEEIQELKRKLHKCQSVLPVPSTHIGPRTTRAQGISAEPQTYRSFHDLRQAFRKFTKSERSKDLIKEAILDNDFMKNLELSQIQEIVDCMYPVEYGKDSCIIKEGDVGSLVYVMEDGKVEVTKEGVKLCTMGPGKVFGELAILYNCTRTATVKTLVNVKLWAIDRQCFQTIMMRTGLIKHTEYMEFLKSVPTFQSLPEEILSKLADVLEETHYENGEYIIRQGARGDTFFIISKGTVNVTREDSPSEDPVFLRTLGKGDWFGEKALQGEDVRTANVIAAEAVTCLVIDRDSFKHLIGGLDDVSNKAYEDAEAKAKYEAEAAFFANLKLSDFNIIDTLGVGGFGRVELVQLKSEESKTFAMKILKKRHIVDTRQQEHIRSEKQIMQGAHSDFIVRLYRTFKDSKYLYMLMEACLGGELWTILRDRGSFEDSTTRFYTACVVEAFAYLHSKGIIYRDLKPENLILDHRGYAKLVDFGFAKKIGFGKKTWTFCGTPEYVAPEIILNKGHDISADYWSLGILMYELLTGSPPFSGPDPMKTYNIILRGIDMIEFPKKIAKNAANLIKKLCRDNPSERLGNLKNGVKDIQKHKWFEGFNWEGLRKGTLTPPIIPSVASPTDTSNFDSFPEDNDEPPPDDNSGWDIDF

[6] = molecular target: T3, Serine/threonine-protein kinase Sgk3 (Homo sapiens) (UniProt Q96BR1); assay: Inhibition of human SGKL at 1.82 nM by HotSpot assay relative to control
T3 sequence (whole entry): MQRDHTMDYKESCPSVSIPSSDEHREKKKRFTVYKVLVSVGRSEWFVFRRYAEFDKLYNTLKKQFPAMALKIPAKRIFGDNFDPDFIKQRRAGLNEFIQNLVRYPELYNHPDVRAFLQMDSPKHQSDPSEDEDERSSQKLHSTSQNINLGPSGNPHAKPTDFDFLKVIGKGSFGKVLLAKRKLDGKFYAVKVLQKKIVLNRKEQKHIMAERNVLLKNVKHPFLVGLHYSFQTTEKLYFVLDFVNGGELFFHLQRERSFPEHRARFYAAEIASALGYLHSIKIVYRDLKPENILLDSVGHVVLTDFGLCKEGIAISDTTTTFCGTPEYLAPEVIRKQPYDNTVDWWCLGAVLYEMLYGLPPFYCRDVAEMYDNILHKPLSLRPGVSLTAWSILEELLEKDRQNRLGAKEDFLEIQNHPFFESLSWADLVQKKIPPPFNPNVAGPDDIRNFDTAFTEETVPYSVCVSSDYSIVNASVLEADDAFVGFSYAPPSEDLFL

[7] = molecular target: TGF-beta receptor type-2 (Homo sapiens) (UniProt P37173); assay: Inhibition of human TGFBR2 at 1.82 nM by HotSpot assay relative to control
Sequence of TGF-beta receptor type-2 (Homo sapiens) (P37173 whole entry): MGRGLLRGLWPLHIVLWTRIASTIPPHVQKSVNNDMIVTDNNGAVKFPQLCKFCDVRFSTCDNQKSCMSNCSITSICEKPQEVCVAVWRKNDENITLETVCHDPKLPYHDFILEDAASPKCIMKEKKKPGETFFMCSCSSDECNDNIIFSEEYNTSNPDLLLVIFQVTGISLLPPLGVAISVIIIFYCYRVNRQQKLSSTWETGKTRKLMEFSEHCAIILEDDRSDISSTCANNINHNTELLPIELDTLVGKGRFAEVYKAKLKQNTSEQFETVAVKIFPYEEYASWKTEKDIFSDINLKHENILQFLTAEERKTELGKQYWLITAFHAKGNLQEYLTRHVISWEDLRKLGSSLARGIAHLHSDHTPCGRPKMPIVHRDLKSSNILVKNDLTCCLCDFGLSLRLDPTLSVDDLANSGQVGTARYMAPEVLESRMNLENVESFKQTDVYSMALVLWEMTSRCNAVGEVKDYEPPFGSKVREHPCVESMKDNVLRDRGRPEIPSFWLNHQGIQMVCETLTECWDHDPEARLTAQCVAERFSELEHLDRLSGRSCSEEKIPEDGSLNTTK

[8] = molecular target: T4, Protein kinase C zeta type (Homo sapiens) (UniProt Q05513); assay: Inhibition of human PKCzeta at 1.82 nM by HotSpot assay relative to control
T4 sequence (whole entry): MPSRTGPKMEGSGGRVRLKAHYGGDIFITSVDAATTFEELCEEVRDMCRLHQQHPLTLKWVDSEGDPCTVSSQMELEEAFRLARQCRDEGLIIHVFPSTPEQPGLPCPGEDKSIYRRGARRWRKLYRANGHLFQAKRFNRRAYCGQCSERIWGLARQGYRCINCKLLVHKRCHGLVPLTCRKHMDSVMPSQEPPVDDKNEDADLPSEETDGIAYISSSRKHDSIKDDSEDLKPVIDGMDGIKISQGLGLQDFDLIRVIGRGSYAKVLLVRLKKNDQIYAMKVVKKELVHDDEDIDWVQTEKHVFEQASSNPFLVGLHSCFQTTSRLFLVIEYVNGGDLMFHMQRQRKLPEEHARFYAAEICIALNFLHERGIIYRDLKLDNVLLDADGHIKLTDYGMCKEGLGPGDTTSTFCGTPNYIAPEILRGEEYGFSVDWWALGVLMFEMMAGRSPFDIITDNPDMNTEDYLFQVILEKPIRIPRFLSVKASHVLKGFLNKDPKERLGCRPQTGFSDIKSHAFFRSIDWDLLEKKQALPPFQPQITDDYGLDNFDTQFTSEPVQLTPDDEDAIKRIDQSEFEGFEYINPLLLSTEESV

Sequence of Ribosomal protein S6 kinase alpha-3 (Homo sapiens) (P51812 whole entry): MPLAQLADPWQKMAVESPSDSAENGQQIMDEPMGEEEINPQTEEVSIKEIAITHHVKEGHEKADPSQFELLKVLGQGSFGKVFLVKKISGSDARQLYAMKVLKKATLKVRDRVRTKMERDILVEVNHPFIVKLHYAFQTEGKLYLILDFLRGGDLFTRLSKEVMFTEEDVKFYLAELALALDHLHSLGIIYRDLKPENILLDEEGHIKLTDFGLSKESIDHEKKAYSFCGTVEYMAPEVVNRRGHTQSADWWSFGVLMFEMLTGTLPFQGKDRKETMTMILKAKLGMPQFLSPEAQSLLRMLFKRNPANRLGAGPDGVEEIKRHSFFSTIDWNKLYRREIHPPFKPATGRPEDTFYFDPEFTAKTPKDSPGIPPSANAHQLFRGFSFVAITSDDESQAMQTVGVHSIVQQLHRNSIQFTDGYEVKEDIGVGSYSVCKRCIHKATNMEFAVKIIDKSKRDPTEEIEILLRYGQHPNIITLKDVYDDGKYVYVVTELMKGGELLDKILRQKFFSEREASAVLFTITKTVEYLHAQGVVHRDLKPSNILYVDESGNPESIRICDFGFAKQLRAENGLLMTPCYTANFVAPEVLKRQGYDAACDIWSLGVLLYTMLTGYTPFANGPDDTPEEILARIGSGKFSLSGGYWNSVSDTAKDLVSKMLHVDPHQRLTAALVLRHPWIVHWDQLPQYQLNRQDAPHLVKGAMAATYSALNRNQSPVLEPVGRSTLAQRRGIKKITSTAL

Question: Which results are given for `C[C@]1(O)C[C@@H](c2nc(-c3ccc4ccc(-c5ccccc5)nc4c3)c3c(N)nccn32)C1`?
Answer: inhibition [1]: 1.82%; inhibition [2]: -5.11%; inhibition [3]: -3.01%; inhibition [4]: -3.24%

Question: `C[C@@]1(C(=O)Nc2ccc(F)nc2)CCCN1c1nc(Nc2cc(C3CC3)n[nH]2)c2cccn2n1` was tested. Which inhibition (Homo sapiens) did it give?
Answer: 1.46%

Question: And the inhibition [5]?
Answer: 5.76%

Question: And the inhibition [6]?
Answer: -2.25%

Question: And the inhibition [7]?
Answer: 5.94%

Question: What about the inhibition [8] of the same molecule?
Answer: -1.74%
